Experimental data as given in patent US20190183812A1, “Compounds For The Treatment Of Neuromuscular Disorders” (NMD PHARMA A/S, priority 2017, published 2019).

What was measured:
rats [1] = experiment: Rotarod running performance of rats after I.P. tubocurarine (myasthenia like phenotype); type: in vivo, rat; details: 20 mg/kg I.P., 2 hrs before tubocurarine 0.13 mg/kg
Procedure: FIGS. 9A-9B. […] FIG. 9A illustrates the design of the experiments. Prior to Day One the animals had been familiarized to the rotarod in three training sessions distributed over two days.
(§1) In both series of experiments, running performance was tested on a rotarod using a protocol where the rod was accelerated gradually over a 5 min period, and the running time and covered distance before falling off the rod were measured. […] Experiments with tubocurarine were carried out over two days, and on each day the effect of tubocurarine on running performance was tested. On the first day only tubocurarine was injected. […] On the second day, the animals were first allowed to run on the rotarod, and all animals performed normally. […] The allocation of the animals into the two groups (C8 or sham) was random and unknown to the experimenter (blinded experimental design).
In the first series of in vivo experiments, myasthenia gravis was simply mimicked by I.P. injection of tubocurarine (0.13 mg/kg) in animals that had been familiarized to running on the rotarod. On the first of two consecutive days, tubocurarine was injected I.P. and the running performance of the animal was tested 21 minutes after this injection. On the second day of experimentation, the animals first performed a test run to ensure that they were no longer affected by the tubocurarine injected the day before. […]

rat soleus muscles [2] = experiment: Mg2+ concentration required to depress nerve-stimulated force by 50% (Kd,Mg2+), combination with 3,4-AP
Procedure: FIGS. 6A-6E. […] Muscles from 4-week-old rats were stimulated to contract by activating the motor nerve with short duration pulses in field stimulation. Muscles contracted every 10 min for 2 s in response to 30 Hz stimulation. Four different experimental conditions were used. […] C) similar to A) but this muscle had been pre-incubated with 3,4-AP. […] The force integral (AUC) was determined at each extracellular Mg^2+ concentration. AUC was plotted against Mg^2+ concentration and the data was fitted to a sigmoidal function. This provided the extracellular Mg^2+ concentration that was required to reduce the nerve-stimulated force to 50% (Mg50) under the four different conditions (see Table 5).
While the use of tubocurarine mimics conditions with reduced neuromuscular transmission due to post-synaptic dysfunction (myasthenia gravis, neuromuscular blockade), the experiments with elevated extracellular Mg^2+ mimics conditions with pre-synaptic dysfunction akin to a range of neuromuscular disorders including Lambert Eaton syndrome, motor neuron disorders and polyneuropathy. Patients with Lambert Eaton syndrome are commonly treated with inhibitors of voltage gated K^+ channels such as 3,4-diaminopyridine (3,4-AP). Based on this it was determined whether recovery of nerve-stimulated force at elevated extracellular Mg^2+ with CIC-1 inhibiting compounds could be added to force recovery with 3,4-AP. […] FIG. 6A-D show recordings of nerve-stimulated force production at different Mg^2+ concentrations when tested under these four experimental conditions. […] To quantify the effect of compounds on Mg^2+ sensitivity the force at the different Mg^2+ concentrations was determined. In plots of nerve-stimulated force against Mg^2+ concentration (FIG. 6E) the Kd,Mg^2+ was determined by fitting four parameter sigmoidal function to the data. Kd, Mg^2+ for the different compounds have been collected in Table 5.

isolated human muscles = details: 150 μM; elevated K+ and TTX
CIC-1 ion channels = target: T1, CIC-1 ion channels (Homo sapiens, UniProt P35523); experiment: Resting membrane conductance (Gm), three-electrode technique, human muscle: Kd for CIC-1 inhibition; type: cell-based; details: concentration that reduced Gm by 50%
T1 construct: Isolated soleus muscles from adult rats or human abdominal muscles preparations were placed in a chamber; from tissue; host or cells: human abdominal muscle from patients
T1 sequence (P35523 whole entry): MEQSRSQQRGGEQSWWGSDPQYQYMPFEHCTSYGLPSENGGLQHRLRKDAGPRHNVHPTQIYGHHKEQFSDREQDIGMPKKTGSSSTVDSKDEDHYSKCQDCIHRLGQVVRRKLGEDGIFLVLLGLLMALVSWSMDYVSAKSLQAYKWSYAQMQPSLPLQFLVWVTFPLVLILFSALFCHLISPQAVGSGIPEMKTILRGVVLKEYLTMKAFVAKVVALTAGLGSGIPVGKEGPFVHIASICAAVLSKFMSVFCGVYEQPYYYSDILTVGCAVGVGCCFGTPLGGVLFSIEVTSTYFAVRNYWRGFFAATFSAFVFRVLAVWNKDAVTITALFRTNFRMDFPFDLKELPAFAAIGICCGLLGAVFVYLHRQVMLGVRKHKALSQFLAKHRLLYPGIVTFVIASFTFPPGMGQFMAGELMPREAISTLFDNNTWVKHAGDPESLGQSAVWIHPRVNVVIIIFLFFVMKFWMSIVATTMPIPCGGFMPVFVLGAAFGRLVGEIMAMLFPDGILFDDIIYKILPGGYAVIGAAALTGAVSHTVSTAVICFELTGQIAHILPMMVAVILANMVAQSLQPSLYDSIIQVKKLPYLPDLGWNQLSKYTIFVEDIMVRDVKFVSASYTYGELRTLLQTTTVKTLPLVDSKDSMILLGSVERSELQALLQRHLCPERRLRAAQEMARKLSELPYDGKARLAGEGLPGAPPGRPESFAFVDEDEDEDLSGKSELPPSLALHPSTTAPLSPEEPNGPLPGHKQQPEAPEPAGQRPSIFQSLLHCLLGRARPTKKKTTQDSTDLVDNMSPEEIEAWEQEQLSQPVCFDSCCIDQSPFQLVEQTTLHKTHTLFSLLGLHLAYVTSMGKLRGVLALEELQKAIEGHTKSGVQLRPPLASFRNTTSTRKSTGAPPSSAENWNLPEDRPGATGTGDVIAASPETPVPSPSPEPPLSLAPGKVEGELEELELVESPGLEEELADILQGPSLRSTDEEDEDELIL

rat soleus muscles [3] = experiment: Tubocurarine concentration required to depress nerve-stimulated force by 50% (Kd,tub), combination with acetylcholinesterase inhibitors
Procedure: FIGS. 5A-5E. […] Muscles from 4-week-old rats were stimulated to contract by activating the motor nerve with short duration pulses in field stimulation. Muscles contracted every 10 min for 2 s in response to 30 Hz stimulation. Four different experimental conditions were used. […] After this pre-incubation, increasing concentrations of tubocurarine were added to the bath solutions with 60 min (corresponding to six contractions) between each increase in tubocurarine. […] FIG. 5C similar to FIG. 5A but this muscle had been pre-incubated with neostigmine. […] The force integral (AUC) was determined at each tubocurarine concentration. Such AUC determinations were plotted against tubocurarine concentration for each muscle.
CIC-1 is a novel target in treatment of neuromuscular complications and it was therefore explored whether this approach for symptomatic treatment could be used in combination with existing symptomatic treatment approaches. In myasthenia gravis, which in isolated muscles was mimicked by tubocurarine, the symptoms of muscle fatigue are most commonly treated with inhibitors of acethylcholineesterase of which neostigmine and pyridostigmine are examples. Also, neostigmine is the most commonly used reversal agent of neuromuscular blocked after surgery. […] FIG. 5A-D show recordings of nerve-stimulated force production at different tubocurarine concentrations when tested under the four experimental conditions. […] To quantify the effect of compounds on tubocurarine sensitivity, the force at the different tubocurarine concentrations was determined. In plots of nerve-stimulated force against tubocurarine concentration (FIG. 5E) Kd,tub was determined by fitting four parameter sigmoidal functions to the data and the Kd,tub for the different compounds have been collected in Table 4.

rats [4] = experiment: Rotarod running performance in passive immunization (MAB35) rat model of myasthenia gravis; type: in vivo
Procedure: FIG. 10. […] Prior to I.P. injection of MAB35 the animals had been familiarized to the rotarod over three training sessions distributed over two days. […] After this treatment performance was monitored every second hour. *Indicates significant different as evaluated using student t-test.
as §1
In experiments with MAB35, animals were first familiarized with the rotarod over two consecutive days and then injected I.P. with MAB35. After injection, rotarod performance was then again monitored regularly over the consecutive two days. […] A considerable number of animals, however, became moribund failing to walk and they had altered ventilation (rapid) and pronounced ptosis. These animals were not included in experiments. […]

[5] = tested on: isolated rat soleus muscles; experiment: Recovery of nerve-stimulated force in isolated rat soleus muscles exposed to sub-maximal tubocurarine; details: Rattus norvegicus, 40 min; read-out: 50 μM % change after addition
Procedure: Experiments were performed using rat soleus muscles from either young (4-wk-old) or adult Wistar rats (12-14-week-old). Animal handling, killing and isolation of muscle is described elsewhere All experiments were performed using normal Krebs-Ringer bicarbonate solution (NKR). In solutions with elevated Mg^2+, MgCl2 was added to NKR-solution causing minor increases in osmolarity and ionic strength. In solutions with elevated K^+, 4 mM NaCl was replaced by 4 mM KCl in the NKR.
In all contraction experiments, isometric force production was determined and force produced during contractions was quantified by measuring the integral of the force response (AUC). Stimulation and force recordings have been described elsewhere. […] In these latter experiments, extracellular recordings of action potentials (M-waves) could be measured without temporal overlap with stimulation artefacts.
The aim was to find compounds that by inhibition of CIC-1 channels can recover nerve-stimulated force under conditions of fatigue including conditions where fatigue is caused by compromised neuromuscular transmission. Neuromuscular transmission dysfunction can develop because of both pre- and/or post-synaptic complications in connection with a disorder or as part of neuromuscular blockade during/after surgery. In the initial series of drug testing, experiments were performed with isolated muscles in the presence of sub-maximal ACh receptor antagonist tubocurarine. Since the inclusion of tubocurarine caused a partial loss of neuromuscular transmission this experiment mimics the conditions in myasthenia gravis and neuromuscular blockade. To mimic conditions with pre-synaptic complication (Lambert Eaton syndrome, motor neuron disorder, polyneuropathy) the intact nerve-muscle preparations were incubated at elevated extracellular Mg^2+, which is known to suppress release of ACh from nerve terminals of motor neurons.
To identify CIC-1 inhibitors that could be used for treatment of neuromuscular disorders we repeated the experiment shown in FIG. 2A but instead of adding 9-AC we added the compounds of interest in different concentrations within the range from 10 to 500 μM. […] For comparison with the muscle only exposed to tubocurarine (grey trace), the two traces have been overlaid. […] For comparison, muscles only exposed to tubocurarine have been included. The dotted line indicates the recovery of force with C8 when compared to the force production before its addition. This value was used in Table 1 for evaluation of the efficacy of the different compounds in recovering force.

rat soleus muscles [6] = type: cell-based; details: 10 and 25 μM; 1 μM μ-conotoxin GiiiB

C[C@H](Oc1ccc(Br)cc1)C(=O)O [Compound C8, (2S)-2-(4-bromophenoxy)propanoic acid]
increase in distance run on the second day compared to the first day (rats [1]): around 150%
effect of combination on recovery of neuromuscular transmission (rat soleus muscles [2]; C8 and 3,4-diaminopyridine together): unexpected synergistic effect
Kd (rat soleus muscles [2]; Compound (50 μM) + 3,4-AP (10 μM)): 7800 ± 500 µM
Kd (rat soleus muscles [2]; Compound (50 μM) alone): 4000 ± 100 µM
contractile force (isolated human muscles): markedly recovery
Kd (CIC-1 ion channels): 5.5 µM
Kd (rat soleus muscles [3]; Compound (50 μM) + Neostigmine (10 nM)): 0.218 ± 0.018 µM
Kd (rat soleus muscles [3]; Compound (50 μM) + Pyridostigmine (100 nM)): 0.186 ± 0.005 µM
Kd (rat soleus muscles [3]; Compound (50 μM) alone): 0.177 ± 0.007 µM
rotarod performance after injection (rats [4]; 20 mg/kg): decline was reduced
rotarod performance after injection (rats [4]; 30 mg/kg): clear recovery of performance
activation at 50 µM [5]: 16%
EPP amplitude (rat soleus muscles [6]): significantly larger EPPs
